Where two headings read alike, the source gives them in different places. Positions of bridges follow the written chain, without caps; N, C: chain ends. Residues, ends and D or L forms follow the SMILES beside them.
How the values were obtained:
Format in all cases: cell-based
[1] = system: human alveolar basal epithelial adenocarcinoma cells, A549; details: for A450(-A620) After 24 hers: A549, peptide 50 μM, WST-8 absorbance after 24 hours
Experimental: (§1) As the tumor cells tested, a commercial mouse neuroblastoma cell line (N1E-115) was used. The cell line was cultured beforehand in a DMEM medium (i.e. Dulbecco MEM medium (DMEM medium, a Gibco product) containing 10% fetal bovine serum (FBS, a Gibco product), 2 mM of L-glutamine, 50 unit/mL of penicillin, and 50 μg/mL of streptomycin), and the number of cells per well in a 96-well plate was adjusted to approximately 5×10^3. The volume of the medium for this was 100 μL per well.
(§2) Subsequently, the stock solution of each sample peptide shown in Table 3 was added to each well to a peptide concentration in the well of 50 μM or 100 μM.
(§3) After the sample peptides were added as described above, the 96-well plate was placed in a CO2 incubator and cultured without agitation at 37° C. under 5% CO2. At the time of the peptide addition (at the start of treatment) and at 6 hours or 24 hours from the peptide addition and the start of incubation, the viability status of the cultured cells tested was analyzed with a commercial colorimetric assay kit. In particular, to each cell-culturing well, “water-soluble tetrazolium salt (WST-8)” was added as a colorimetric reagent; after two hours of incubation following the addition, the cell culture medium supplied with the colorimetric reagent was collected; and the level of inhibition of cell proliferation was evaluated by colorimetry, measuring the absorbance at a wavelength of 450 nm (values corrected with the absorbance at a wavelength of 620 nm, A450-A620) based on reduction of tetrazolium salt. Based on the absorbance at the time of the sample peptide addition (at the start of treatment), the percent decrease in the absorbance after 6 hours or 24 hours was determined as the cell proliferation inhibition rate (%).
Cells forming a […] (human alveolar basal epithelial adenocarcinoma cells, A549) were substituted for the tumor cells tested and the same test as Example 2 described above was carried out. In the present example, the peptides of Samples 1 to 13, 15 to 22, 24, 29, 35 and 40 were used.

HeLa cells (HeLa S3) = details: WST-8 absorbance after 24 hours
Experimental: as §1, §2, §3
HeLa cells (HeLa S3) were substituted for the tumor cells tested and the same test as Example 2 described above was carried out. In the present example, the peptides of Samples 1 to 7, 9, 10, 13, 16, 21 and 35 were used.

[2] = system: mouse neuroblastoma cell line (N1E-115); details: for A450(-A620) After 6 hers: WST-8 absorbance after 6 hours; for A450(-A620) After 24 hers: WST-8 absorbance after 24 hours
Experimental: Some of the sample peptides obtained in Example 1 were tested for antitumor activity against target cultured tumor cells. Details of the assay are as described below.
as §1, §2, §3

Q: What does the source list for `CC(C)C[C@@H]1NC(=O)[C@@H](N)CSSC[C@@H](C(=O)O)NC(=O)[C@H](CCCCN)NC(=O)[C@H](CO)NC(=O)[C@@H]2CCCN2C(=O)[C@H](CO)NC(=O)[C@@H]2CCCN2C(=O)[C@H](C)NC1=O` [Sample 2, CLAPSPSKC] (H-CLAPSPSKC-OH; disulfide 1-9; N-terminus and C-terminus assumed)?
A: A450(-A620) After 24 hers [1]: 1.8971; A450(-A620) After 24 hers (HeLa cells (HeLa S3); HeLa S3, peptide 50 μM): 0.0924; A450(-A620) After 24 hers (HeLa cells (HeLa S3); HeLa S3, peptide 100 μM): 0.0739; A450(-A620) After 6 hers ([2]; N1E-115, peptide 50 μM): 0.2235; A450(-A620) After 24 hers ([2]; N1E-115, peptide 50 μM): 0.3926; A450(-A620) After 6 hers ([2]; N1E-115, peptide 100 μM): 0.2094; A450(-A620) After 24 hers ([2]; N1E-115, peptide 100 μM): 0.3764

Q: Which results are given for `N=C(N)NCCC[C@@H]1NC(=O)[C@H](Cc2c[nH]cn2)NC(=O)CNC(=O)[C@@H](N)CSSC[C@@H](C(=O)O)NC(=O)[C@H](Cc2ccc(O)cc2)NC(=O)[C@H](CCC(N)=O)NC(=O)[C@H](Cc2ccc(O)cc2)NC(=O)[C@@H]2CCCN2C1=O` [Sample 4, CGHRPYQYC] (H-CGHRPYQYC-OH; disulfide 1-9; N-terminus and C-terminus assumed)?
A: A450(-A620) After 24 hers [1]: 1.7663; A450(-A620) After 24 hers (HeLa cells (HeLa S3); HeLa S3, peptide 50 μM): 0.0955; A450(-A620) After 24 hers (HeLa cells (HeLa S3); HeLa S3, peptide 100 μM): 0.0937

Q: Which “A450(-A620) After 24 hers” value [1] does the source give for `CC(C)C[C@@H]1NC(=O)[C@@H]2CCCN2C(=O)[C@H](Cc2ccccc2)NC(=O)[C@H](C)NC(=O)[C@H](Cc2c[nH]c3ccccc23)NC(=O)[C@@H](N)CSSC[C@@H](C(=O)O)NC(=O)[C@H](Cc2c[nH]cn2)NC(=O)[C@H](Cc2c[nH]cn2)NC1=O` [Sample 5, CWAFPLHHC] (H-CWAFPLHHC-OH; disulfide 1-9; N-terminus and C-terminus assumed) here?
A: 1.8994

Q: What about the “A450(-A620) After 24 hers” value (HeLa cells (HeLa S3); HeLa S3, peptide 50 μM) of the same compound?
A: 0.0955

Q: What about the “A450(-A620) After 24 hers” value (HeLa cells (HeLa S3); HeLa S3, peptide 100 μM) of the same compound?
A: 0.0952

Q: `CC(C)C[C@@H]1NC(=O)[C@H]([C@@H](C)O)NC(=O)[C@@H](N)CSSC[C@@H](C(=O)O)NC(=O)[C@H](CC(N)=O)NC(=O)[C@H](CO)NC(=O)[C@H](Cc2c[nH]cn2)NC(=O)[C@H](CO)NC(=O)[C@H](CC(N)=O)NC1=O` [Sample 6, CTLNSHSNC] (H-CTLNSHSNC-OH; disulfide 1-9; N-terminus and C-terminus assumed) was tested. Which “antitumor activity (tumor cell proliferation-inhibiting activity), in words” value ([1]; A549, 50 μM, 24 hours, summary of Table 5) did it give?
A: high antitumor activity

Q: What about the “A450(-A620) After 24 hers” value [1] of the same compound?
A: 1.4667

Q: What about the “A450(-A620) After 24 hers” value (HeLa cells (HeLa S3); HeLa S3, peptide 50 μM) of the same compound?
A: 0.1174

Q: And the “A450(-A620) After 24 hers” value (HeLa cells (HeLa S3); HeLa S3, peptide 100 μM)?
A: 0.0906

Q: And the “A450(-A620) After 6 hers” value ([2]; N1E-115, peptide 50 μM)?
A: 0.1633

Q: And the “A450(-A620) After 24 hers” value ([2]; N1E-115, peptide 50 μM)?
A: 0.3083

Q: What about the “A450(-A620) After 6 hers” value ([2]; N1E-115, peptide 100 μM) of the same compound?
A: 0.1345

Q: What about the “A450(-A620) After 24 hers” value ([2]; N1E-115, peptide 100 μM) of the same compound?
A: 0.2830

Q: Which “A450(-A620) After 24 hers” value [1] does the source give for `CC[C@H](C)[C@@H]1NC(=O)[C@H](CCC(=O)O)NC(=O)[C@@H](N)CSSC[C@@H](C(=O)O)NC(=O)[C@H]([C@@H](C)O)NC(=O)[C@H](CCCNC(=N)N)NC(=O)[C@H](CCCCN)NC(=O)[C@H](C)NC(=O)[C@H](CO)NC1=O` [Sample 7, CEISAKRTC] (H-CEISAKRTC-OH; disulfide 1-9; N-terminus and C-terminus assumed) here?
A: 1.6822

Q: And the “A450(-A620) After 24 hers” value (HeLa cells (HeLa S3); HeLa S3, peptide 50 μM)?
A: 0.1508

Q: And the “A450(-A620) After 24 hers” value (HeLa cells (HeLa S3); HeLa S3, peptide 100 μM)?
A: 0.1081

Q: How did the “A450(-A620) After 24 hers” value [1] turn out when `C[C@@H]1NC(=O)[C@H](Cc2c[nH]c3ccccc23)NC(=O)[C@H](Cc2c[nH]cn2)NC(=O)CNC(=O)[C@H]([C@@H](C)O)NC(=O)[C@@H](N)CSSC[C@@H](C(=O)O)NC(=O)[C@H](CCC(=O)O)NC(=O)[C@H](CO)NC1=O` [Sample 10, CTGHWASEC] (H-CTGHWASEC-OH; disulfide 1-9; N-terminus and C-terminus assumed) was run?
A: 1.7472

Q: And the “A450(-A620) After 24 hers” value (HeLa cells (HeLa S3); HeLa S3, peptide 50 μM)?
A: 0.0909

Q: What about the “A450(-A620) After 24 hers” value (HeLa cells (HeLa S3); HeLa S3, peptide 100 μM) of the same compound?
A: 0.0915
